{"source": "patent US8703964B2", "about": "“Bendamustine cyclopolysaccharide compositions” (Supratek Pharma Inc., priority 2009, dated 2014)", "key": {"[1]": {"assay": "Pharmacokinetics of bendamustine dosed to rats, composition with SBECD and LMWP (Example 25)", "assay_type": "in vivo, Female Sprague-Dawley rats", "conditions": "i.v. 10 mg/kg", "method": "Control: 5 mg/mL bendamustine hydrochloride, 10.2 mg/mL of mannitol in 0.9% NaCl; dose of 10 mg/kg\n5 mg/mL bendamustine hydrochloride, 20% w/w sodium sulfobutyl ether β-cyclodextrin, 10.2 mg/g mannitol in water; dose of 10 mg/kg.\n5 mg/mL bendamustine hydrochloride, 20% w/w sodium sulfobutyl ether β-cyclodextrin, 1% LMWP, 10.2 mg/g mannitol in water; dose of 10 mg/kg.\nFemale Sprague-Dawley rats (250-350 g). The animals were kept three per cage with an air filter cover under light (12 h light/dark cycle, light on at 06 h00) and controlled temperature 22° C.+/−1° C. All manipulations with the animals were performed under a sterilized laminar hood. The animals had ad libitum access to Purina mouse chow and water. The animals were fasted overnight and anesthetized, before dosing. Dosing and Sampling: The bendamustine compositions and control were administered intravenously to rats via a tail vein. Blood samples were collected 5, 15, 30, 45 min, 1, 1.5, 2, 3 and 4 hrs post-injection. The rats were anesthetized by general inhalation of isoflurane. The blood samples were collected from the jugular vein with a heparinized tube and kept on ice. The sample was immediately centrifuged, and the plasma separated. The plasma samples were immediately extracted. Sample Extraction and Analysis: The plasma samples 0.100 mL were transferred to plastic tubes. The samples were extracted with 0.400 mL of 100 mM HCl in acetonitrile while being shaken vigorously for 30 seconds. The samples were centrifuged at 10000 RPM for 5 minutes. The supernatant was separated. The samples were frozen in dry ice and kept at −80° C. until HPLC analysis. The aliquots of 20 microliters were injected into HPLC for analysis. The HPLC Conditions: C18 reversed phase column 50×4.6 mm, Symmetry/Shield 3.5 micrometer Column temperature 30° C. Flow rate 1.5 mL/min Injection volume 20 microliters Fluorescence detection at wavelengths: excitation 327 nm, emission 420 nm Mobile phase: Buffer A: 5% acetonitrile 0.1% TFA Buffer B: 90% acetonitrile 0.1% TFA Run time: 10 min The pharmacokinetic profiles of Bendamustine for tested composition versus the control is shown in Table 9 below."}, "RPMI8226 cells": {"test_system": "RPMI8226 cells", "assay": "Cytotoxicity of bendamustine compositions pre-incubated with media, WST-1 (Example 23)", "assay_type": "cell-based", "conditions": "for Cell growth: RPMI8226, 72 h; for IC50: Homo sapiens, RPMI-8226, read-out: IC50 of bendamustine, RPMI8226", "method": "BM and SBECD/LMWP formulation (40 mg/ml BM in 20% SBECD, 1% LMWP) were incubated in DMEM medium containing 10% FBS for 0, 1, or 4 h and then were added in varying concentrations to RPMI8226 cells. During BM treatment, concentrations of SBECD and LMWP were kept constant in culture medium at […], respectively. Cells were then grown for 72 h. The drug cytotoxicity was evaluated using WST-1 procedure."}, "[2]": {"test_system": "Human breast carcinoma MDA-MB 231 s.c. solid tumors", "assay": "Human breast carcinoma MDA-MB 231 s.c. solid tumors in nude mice (Example 28)", "assay_type": "in vivo, balb/c nu/nu mice", "conditions": "for Tumor weight after treatment, Average (SEM): 30 mg/kg days 1, 2, 9, 10", "method": "balb/c mice aged 5 to 6 weeks were purchased from Charles River Canada Inc. The animals were kept 5 per cage with an air filter cover under light (12 light/dark cycle, light on at 6 H00) and temperature (22° C.±1° C.)-controlled environment. All manipulations of animals were performed under a sterilized laminar hood. The animals had ad libitum access to Purina mouse chow (Pro Lab PMH 4018, Trademark of Agway, Syracuse, N.Y.) and water. These animal studies were conducted according to the “Guidelines for Care and Use of Experimental Animals”. Tumor Cell Culture: Human breast cancer cells MDA-MB 231 were cultured in the appropriated culture medium. The cells were harvested in their logarithmic growth phase for the preparation of tumor implantation. Tumor Implantation: Human tumor or myeloma cells (2.5 to 5.0×10^6 cells) were implanted subcutaneously in 0.200 mL of medium containing 30% Matrigel on the two flanks of balb/c nu/nu mice through a 1 to 2 cm long 20-gauge needle. Treatments: 2 to 3 weeks after tumor cell implantation, animals that developed s.c. solid tumors were selected and divided into several homogeneous groups (n=5 animals per group or dose) with respect to tumor size (0.5 to 0.8 cm in diameter). The treatments were performed next day. The animals were dosed with the following dosing solutions. Control: (0.9%, NaCl) Compositions:\nSubcutaneous solid tumor measurements were performed on the day of first injection and at 3- to 4-day intervals thereafter. The two largest perpendicular diameters of each tumor were measured with calipers and tumor sizes were estimated using the formula: TV=L×W/2 where TV: tumor volume; L: length; W: width. The body weights of animals were also noted.\nThe experiment was performed as described in example 27, using the following compositions for treatment:\nnon-formulated bendamustine, (30 mg/kg)\nBendamustine (30 mg/kg) in 40% SBECD (formulated BM)\nThe treatment was performed on days 1, 2, 9, and 10."}}, "note": "Where two headings read alike, the source gives them in different places.", "data": [{"smiles": "Cn1c(CCCC(=O)O)nc2cc(N(CCCl)CCCl)ccc21", "note": "[BM, 4-[5-[bis(2-chloroethyl)amino]-1-methylbenzimidazol-2-yl]butanoic acid]", "values": [{"measurement": "concentration at 1 h", "setting": "[1]; female, Sprague-Dawley, rat, plasma, iv, 1 h post injection, read-out: Concentration of bendamustine in rat plasma, Mean (SEM)", "value": 47, "unit": "ng/mL"}, {"measurement": "concentration at 3 h", "setting": "[1]; female, Sprague-Dawley, rat, plasma, iv, 3 h post injection, read-out: Concentration of bendamustine in rat plasma, Mean (SEM)", "value": 0, "unit": "ng/mL"}, {"measurement": "Concentration of bendamustine in rat plasma, Mean (SEM)", "setting": "[1]; 0.08 h post injection", "value": "6045 (388) ng/mL"}, {"measurement": "Concentration of bendamustine in rat plasma, Mean (SEM)", "setting": "[1]; 0.25 h post injection", "value": "2428 (250) ng/mL"}, {"measurement": "Concentration of bendamustine in rat plasma, Mean (SEM)", "setting": "[1]; 0.5 h post injection", "value": "520 (105) ng/mL"}, {"measurement": "Concentration of bendamustine in rat plasma, Mean (SEM)", "setting": "[1]; 0.75 h post injection", "value": "145 (35) ng/mL"}, {"measurement": "Concentration of bendamustine in rat plasma, Mean (SEM)", "setting": "[1]; 1.5 h post injection", "value": "8 (1) ng/mL"}, {"measurement": "Concentration of bendamustine in rat plasma, Mean (SEM)", "setting": "[1]; 2 h post injection", "value": "2 (1) ng/mL"}, {"measurement": "Cell growth", "setting": "RPMI8226 cells; Bendamustine 1 uM, pre-incubated in medium 0 h", "value": 100, "unit": "%"}, {"measurement": "Cell growth", "setting": "RPMI8226 cells; Bendamustine 1 uM, pre-incubated in medium 1 h", "value": 100, "unit": "%"}, {"measurement": "Cell growth", "setting": "RPMI8226 cells; Bendamustine 1 uM, pre-incubated in medium 4 h", "value": 100, "unit": "%"}, {"measurement": "Cell growth", "setting": "RPMI8226 cells; Bendamustine 15 uM, pre-incubated in medium 0 h", "value": 83, "unit": "%"}, {"measurement": "Cell growth", "setting": "RPMI8226 cells; Bendamustine 15 uM, pre-incubated in medium 1 h", "value": 100, "unit": "%"}, {"measurement": "Cell growth", "setting": "RPMI8226 cells; Bendamustine 15 uM, pre-incubated in medium 4 h", "value": 100, "unit": "%"}, {"measurement": "Cell growth", "setting": "RPMI8226 cells; Bendamustine 31 uM, pre-incubated in medium 0 h", "value": 70, "unit": "%"}, {"measurement": "Cell growth", "setting": "RPMI8226 cells; Bendamustine 31 uM, pre-incubated in medium 1 h", "value": 100, "unit": "%"}, {"measurement": "Cell growth", "setting": "RPMI8226 cells; Bendamustine 31 uM, pre-incubated in medium 4 h", "value": 100, "unit": "%"}, {"measurement": "Cell growth", "setting": "RPMI8226 cells; Bendamustine 62 uM, pre-incubated in medium 0 h", "value": 46, "unit": "%"}, {"measurement": "Cell growth", "setting": "RPMI8226 cells; Bendamustine 62 uM, pre-incubated in medium 1 h", "value": 106, "unit": "%"}, {"measurement": "Cell growth", "setting": "RPMI8226 cells; Bendamustine 62 uM, pre-incubated in medium 4 h", "value": 104, "unit": "%"}, {"measurement": "Cell growth", "setting": "RPMI8226 cells; Bendamustine 125 uM, pre-incubated in medium 0 h", "value": 11, "unit": "%"}, {"measurement": "Cell growth", "setting": "RPMI8226 cells; Bendamustine 125 uM, pre-incubated in medium 1 h", "value": 20, "unit": "%"}, {"measurement": "Cell growth", "setting": "RPMI8226 cells; Bendamustine 125 uM, pre-incubated in medium 4 h", "value": 105, "unit": "%"}, {"measurement": "Cell growth", "setting": "RPMI8226 cells; Bendamustine 250 uM, pre-incubated in medium 0 h", "value": "−23", "unit": "%"}, {"measurement": "Cell growth", "setting": "RPMI8226 cells; Bendamustine 250 uM, pre-incubated in medium 1 h", "value": "−45", "unit": "%"}, {"measurement": "Cell growth", "setting": "RPMI8226 cells; Bendamustine 250 uM, pre-incubated in medium 4 h", "value": 75, "unit": "%"}, {"measurement": "Cell growth", "setting": "RPMI8226 cells; Bendamustine 500 uM, pre-incubated in medium 0 h", "value": "−87", "unit": "%"}, {"measurement": "Cell growth", "setting": "RPMI8226 cells; Bendamustine 500 uM, pre-incubated in medium 1 h", "value": "−85", "unit": "%"}, {"measurement": "Cell growth", "setting": "RPMI8226 cells; Bendamustine 500 uM, pre-incubated in medium 4 h", "value": 8, "unit": "%"}, {"measurement": "Cell growth", "setting": "RPMI8226 cells; Bendamustine 1000 uM, pre-incubated in medium 0 h", "value": "−98", "unit": "%"}, {"measurement": "Cell growth", "setting": "RPMI8226 cells; Bendamustine 1000 uM, pre-incubated in medium 1 h", "value": "−102", "unit": "%"}, {"measurement": "Cell growth", "setting": "RPMI8226 cells; Bendamustine 1000 uM, pre-incubated in medium 4 h", "value": "−99", "unit": "%"}, {"measurement": "IC50", "setting": "RPMI8226 cells; time of pre-incubation 0 h", "value": 62, "unit": "µM"}, {"measurement": "IC50", "setting": "RPMI8226 cells; time of pre-incubation 1 h", "value": 106, "unit": "µM"}, {"measurement": "IC50", "setting": "RPMI8226 cells; time of pre-incubation 4 h", "value": 390, "unit": "µM"}, {"measurement": "LC50", "setting": "RPMI8226 cells; RPMI8226, change of LC50 (50% death of cells) per hour of pre-incubation in medium", "value": "107 ± 11", "unit": "µM/h"}, {"measurement": "TGI", "setting": "RPMI8226 cells; RPMI8226, change of TGI (total growth inhibition) per hour of pre-incubation in medium", "value": "98 ± 18", "unit": "µM/h"}, {"measurement": "Tumor weight after treatment, Average (SEM)", "setting": "[2]; day 0", "value": "0.203 (0.028) g"}, {"measurement": "Tumor weight after treatment, Average (SEM)", "setting": "[2]; day 2", "value": "0.238 (0.023) g"}, {"measurement": "Tumor weight after treatment, Average (SEM)", "setting": "[2]; day 5", "value": "0.267 (0.022) g"}, {"measurement": "Tumor weight after treatment, Average (SEM)", "setting": "[2]; day 7", "value": "0.313 (0.028) g"}, {"measurement": "Tumor weight after treatment, Average (SEM)", "setting": "[2]; day 9", "value": "0.388 (0.045) g"}, {"measurement": "Tumor weight after treatment, Average (SEM)", "setting": "[2]; day 12", "value": "0.497 (0.060) g"}, {"measurement": "Tumor weight after treatment, Average (SEM)", "setting": "[2]; day 14", "value": "0.550 (0.075) g"}, {"measurement": "Tumor weight after treatment, Average (SEM)", "setting": "[2]; day 16", "value": "0.594 (0.084) g"}, {"measurement": "Tumor weight after treatment, Average (SEM)", "setting": "[2]; day 19", "value": "0.684 (0.098) g"}, {"measurement": "Real Tumor weight on day 19 in autopsy", "setting": "[2]; 30 mg/kg, Day 1, 2, 9, 10", "value": "0.275 ± 0.052", "unit": "g"}, {"measurement": "Tumor weight on day 19 estimated from measurements of the tumor size", "setting": "[2]; 30 mg/kg, Day 1, 2, 9, 10", "value": "0.684 ± 0.10", "unit": "g"}]}]}
